Measurements published in ChEMBL document CHEMBL1268959, “Synthesis and pharmacological activity of 1,3,6-trisubstituted-4-oxo-1,4-dihydroquinoline-2-carboxylic acids as selective ET(A) antagonists” (Bioorg Med Chem Lett, 2010).
Activity calls are given as the source filed them. The calls are words filed in the database; no cut-off is given here.

What was measured:
Endothelin-1 receptor = biological target: T1, Endothelin-1 receptor (Homo sapiens, UniProt P25101); assay: Displacement of [125I]ET1 from ETA receptor expressed in african green monkey CCL-81 cells monolayer; assay type: cell-based
T1 sequence (P25101 whole entry): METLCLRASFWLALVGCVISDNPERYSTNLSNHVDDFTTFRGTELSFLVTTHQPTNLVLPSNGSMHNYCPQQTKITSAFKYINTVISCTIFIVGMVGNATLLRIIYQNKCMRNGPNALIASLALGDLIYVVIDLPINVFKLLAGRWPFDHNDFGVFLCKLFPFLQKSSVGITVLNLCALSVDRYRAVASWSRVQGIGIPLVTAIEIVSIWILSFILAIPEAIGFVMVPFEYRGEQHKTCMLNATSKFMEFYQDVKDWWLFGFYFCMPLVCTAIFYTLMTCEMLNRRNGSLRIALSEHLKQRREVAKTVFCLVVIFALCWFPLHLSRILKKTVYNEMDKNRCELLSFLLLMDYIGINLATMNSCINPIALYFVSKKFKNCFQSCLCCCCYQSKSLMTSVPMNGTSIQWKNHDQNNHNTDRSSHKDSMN

[1] = biological target: T2, Endothelin receptor type B (Homo sapiens, UniProt P24530); assay: Displacement of [125I]ET1 from human ETB receptor expressed in membranes
T2 sequence (P24530 whole entry): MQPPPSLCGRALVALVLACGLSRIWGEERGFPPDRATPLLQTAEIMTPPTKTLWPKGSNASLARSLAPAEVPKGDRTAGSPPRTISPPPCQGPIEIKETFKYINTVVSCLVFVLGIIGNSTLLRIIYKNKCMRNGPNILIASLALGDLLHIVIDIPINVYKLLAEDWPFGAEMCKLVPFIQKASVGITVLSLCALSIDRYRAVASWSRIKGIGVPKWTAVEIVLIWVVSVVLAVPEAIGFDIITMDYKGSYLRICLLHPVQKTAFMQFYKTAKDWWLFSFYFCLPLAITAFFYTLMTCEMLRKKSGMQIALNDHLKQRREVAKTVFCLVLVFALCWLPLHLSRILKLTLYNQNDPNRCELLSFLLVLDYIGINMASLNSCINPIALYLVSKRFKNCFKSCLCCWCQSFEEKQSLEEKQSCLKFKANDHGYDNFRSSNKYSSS

[2] = Selectivity ratio, ratio of IC50 for ETB receptor to IC50 for ETA receptor
Hamster [3] = assay: Antiinflammatory activity against LPS-induced lung inflammation in hamster model assessed as reduction in bronchoalveolar lavage fluid leukocytes; assay type: functional, organism-based; settings: Cricetinae
Hamster [4] = assay: Antiinflammatory activity against cigarette smoke-induced lung inflammation in hamster model assessed as reduction in bronchoalveolar lavage fluid leukocytes; assay type: functional, organism-based; settings: Cricetinae
Hamster [5] = assay: Antiinflammatory activity against ET1-induced lung inflammation in hamster model assessed as reduction in bronchoalveolar lavage fluid leukocytes; assay type: functional, organism-based; settings: Cricetinae
Mus musculus = organism: Mus musculus; assay: Inhibition of LPS-induced preterm delivery in pregnant mouse model; assay type: functional, organism-based

Row | SMILES | IC50 (Endothelin-1 receptor) [µM] | IC50 [1] [µM] | Ratio IC50 [2] | inhibition (Hamster [3]) | inhibition (Hamster [4]) | inhibition (Hamster [5]) | inhibition (Mus musculus)
1 | CCc1cc2c(cc1Cn1c(C(=O)O)c(Cc3cccc(C(=O)O)c3)c(=O)c3cc(OCCCO)ccc31)OCO2 | 0.0074 | 4.39 | 593 |  |  |  | 
2 | CCc1cc2c(cc1Cn1c(C(=O)O)c(Cc3cccc(C(=O)O)c3)c(=O)c3cc(OCC(C)C)ccc31)OCO2 | 0.0063 | 1.98 | 315 |  |  |  | 
3 | CCCCCOc1ccc2c(c1)c(=O)c(Cc1cccc(C(=O)O)c1)c(C(=O)O)n2Cc1cc2c(cc1CC)OCO2 | 0.61 |  |  |  |  |  | 
4 | CCc1cc2c(cc1Cn1c(C(=O)O)c(Cc3cccc(C(=O)O)c3)c(=O)c3cc(OCOC)ccc31)OCO2 | 0.0244 | 1.03 | 43 |  |  |  | 
5 | C=CCOc1ccc2c(c1)c(=O)c(Cc1cccc(C(=O)O)c1)c(C(=O)O)n2Cc1cc2c(cc1CC)OCO2 | 0.0381 | 1.13 | 30 |  |  |  | 
6 | CCc1cc2c(cc1Cn1c(C(=O)O)c(Cc3cccc(C(=O)O)c3)c(=O)c3cc(OCC4CC4)ccc31)OCO2 | 0.116 |  |  |  |  |  | 
7 | CCc1cc2c(cc1Cn1c(C(=O)O)c(Cc3cccc(C(=O)O)c3)c(=O)c3cc(OC(C)CC)ccc31)OCO2 (stereo unspecified) | 0.0099 |  |  |  |  |  | 
8 | CCOc1ccc2c(c1)c(=O)c(Cc1cccc(C(=O)O)c1)c(C(=O)O)n2Cc1cc2c(cc1CC)OCO2 | 0.0066 | 3.12 | 473 |  |  |  | 
9 | CCc1cc2c(cc1Cn1c(C(=O)O)c(Cc3cccc(C(=O)O)c3)c(=O)c3cc(OC(C)C)ccc31)OCO2 | 0.0135 | 0.677 | 50 |  |  |  | 
10 | CCc1cc2c(cc1Cn1c(C(=O)O)c(Cc3cccc(C(=O)O)c3)c(=O)c3ccccc31)OCO2 | 0.00069 | 0.571 | 827 |  |  |  | 
11 | CC(C)C[C@@H]1NC(=O)[C@@H](C(C)C)NC(=O)[C@@H]2CCCN2C(=O)C(CC(=O)O)NC(=O)[C@@H](Cc2c[nH]c3ccccc23)NC1=O (single isomer, unassigned) [BQ-123] | 0.0248 |  |  |  |  |  | 
12 | CCc1cc2c(cc1Cn1c(C(=O)O)c(Cc3cccc(C(=O)O)c3)c(=O)c3cc(OCC(=O)O)ccc31)OCO2 | 0.285 | 1.45 | 5 |  |  |  | 
13 | CCc1cc2c(cc1Cn1c(C(=O)O)c(Cc3cccc(C(=O)O)c3)c(=O)c3cc(O)ccc31)OCO2 | 0.0389 | 15.6 | 399 | Active | Active | Active | Active
14 | CCCOc1ccc2c(c1)c(=O)c(Cc1cccc(C(=O)O)c1)c(C(=O)O)n2Cc1cc2c(cc1CC)OCO2 | 0.00011 | 0.913 | 8300 |  |  |  | 
15 | CCCCOc1ccc2c(c1)c(=O)c(Cc1cccc(C(=O)O)c1)c(C(=O)O)n2Cc1cc2c(cc1CC)OCO2 | 0.00144 | 0.548 | 381 |  |  |  | 
